Test results: PubChem BioAssay AID2060900 (Molecular Pharmacology Branch, DTP, NCI, 2025)
pIC50: −log10 of the molar value. Blank lines part the entries; values can stand above or below the compound they belong to.

System: 521955-158-R2-J5-PDC complex spheroids, viability
Experiment: Anticancer human tumor 521955-158-R2-J5-PDC patient-derived pancreatic carcinoma cell line growth inhibition [RAS]
Details: for pIC50: curve of first compound; for viability, T/C: stronger effect = lower value
Method in brief: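 Agents were tested in combination matrices in half-log decrements from a top concentration at or near clinical Cmax (10 microM if undetermined). Targets were multi-cell spheroids of tumour lines plus HUVEC and MSC stromal cells.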
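Note: compound exposure lasted seven days before the viability read.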
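Throughout, for viability, T/C: spheroids also contain HUVEC endothelial cells and mesenchymal stem cells as stroma.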

pIC50 (second compound 0.000949 µM): < 6.00
pIC50 (second compound 0.003 µM): < 6.00
pIC50 (second compound 0.00949 µM): < 6.00
pIC50 (second compound 0.03 µM): < 6.00
pIC50 (second compound 0.0949 µM): < 6.00
pIC50 (second compound 0.3 µM): < 6.00
Structure (SMILES): CCN1CCN(Cc2ccc(Nc3ncc(F)c(-c4cc(F)c5nc(C)n(C(C)C)c5c4)n3)nc2)CC1 + CCn1c(-c2cccnc2C(C)OC)c2c3cc(ccc31)N1CCOC(CC(NC(=O)C(C(C)C)N(C)C(=O)C3(F)CCN(C(=O)C#CC(C)(C)N(C)C)CC3)C(=O)N3CCCC(N3)C(=O)OCC(C)(C)C2)C1
viability, T/C (second compound 0.000949 µM, first compound 0.00316 µM): 96.8%
viability, T/C (second compound 0.000949 µM, first compound 0.01 µM): 87.4%
viability, T/C (second compound 0.000949 µM, first compound 0.0316 µM): 61.9%
viability, T/C (second compound 0.000949 µM, first compound 0.1 µM): 80.1%
viability, T/C (second compound 0.000949 µM, first compound 0.316 µM): 87.8%
viability, T/C (second compound 0.000949 µM, first compound 1 µM): 74.5%
viability, T/C (second compound 0.003 µM, first compound 0.00316 µM): 88.6%
viability, T/C (second compound 0.003 µM, first compound 0.01 µM): 89.2%
viability, T/C (second compound 0.003 µM, first compound 0.0316 µM): 81.9%
viability, T/C (second compound 0.003 µM, first compound 0.1 µM): 75.7%
viability, T/C (second compound 0.003 µM, first compound 0.316 µM): 79.1%
viability, T/C (second compound 0.003 µM, first compound 1 µM): 70.7%
viability, T/C (second compound 0.00949 µM, first compound 0.00316 µM): 85.5%
viability, T/C (second compound 0.00949 µM, first compound 0.01 µM): 80.1%
viability, T/C (second compound 0.00949 µM, first compound 0.0316 µM): 74.2%
viability, T/C (second compound 0.00949 µM, first compound 0.1 µM): 79.5%
viability, T/C (second compound 0.00949 µM, first compound 0.316 µM): 69.1%
viability, T/C (second compound 0.00949 µM, first compound 1 µM): 74%
viability, T/C (second compound 0.03 µM, first compound 0.00316 µM): 73.8%
viability, T/C (second compound 0.03 µM, first compound 0.01 µM): 89.7%
viability, T/C (second compound 0.03 µM, first compound 0.0316 µM): 76.9%
viability, T/C (second compound 0.03 µM, first compound 0.1 µM): 75.1%
viability, T/C (second compound 0.03 µM, first compound 0.316 µM): 73.1%
viability, T/C (second compound 0.03 µM, first compound 1 µM): 73.6%
viability, T/C (second compound 0.0949 µM, first compound 0.00316 µM): 66.8%
viability, T/C (second compound 0.0949 µM, first compound 0.01 µM): 73.9%
viability, T/C (second compound 0.0949 µM, first compound 0.0316 µM): 73.7%
viability, T/C (second compound 0.0949 µM, first compound 0.1 µM): 74.6%
viability, T/C (second compound 0.0949 µM, first compound 0.316 µM): 71.6%
viability, T/C (second compound 0.0949 µM, first compound 1 µM): 69.4%
viability, T/C (second compound 0.3 µM, first compound 0.00316 µM): 71.5%
viability, T/C (second compound 0.3 µM, first compound 0.01 µM): 60.8%
viability, T/C (second compound 0.3 µM, first compound 0.0316 µM): 59.9%
viability, T/C (second compound 0.3 µM, first compound 0.1 µM): 58.1%
viability, T/C (second compound 0.3 µM, first compound 0.316 µM): 61.6%
viability, T/C (second compound 0.3 µM, first compound 1 µM): 61.1%

pIC50 (second compound 0.0316 µM): > 9.02
pIC50 (second compound 0.1 µM): > 9.02
pIC50 (second compound 0.316 µM): > 9.02
pIC50 (second compound 1 µM): > 9.02
pIC50 (second compound 3.16 µM): > 9.02
pIC50 (second compound 10 µM): > 9.02
Structure (SMILES): CC1(C)CCC(Nc2ncc(C(F)(F)F)c(-c3c[nH]c4c(P(C)(C)=O)c(C#N)ccc34)n2)CN1 (stereo unspecified) + C#Cc1c(F)ccc2cc(O)cc(-c3ncc4c(N5CC6CCC(C5)N6)nc(OCC56CCCN5CC(F)C6)nc4c3F)c12
viability, T/C (second compound 0.0316 µM, first compound 0.000949 µM): 43.7%
viability, T/C (second compound 0.0316 µM, first compound 0.003 µM): 38.4%
viability, T/C (second compound 0.0316 µM, first compound 0.00949 µM): 37.1%
viability, T/C (second compound 0.0316 µM, first compound 0.03 µM): 31.4%
viability, T/C (second compound 0.0316 µM, first compound 0.0949 µM): 43.7%
viability, T/C (second compound 0.0316 µM, first compound 0.3 µM): 41.9%
viability, T/C (second compound 0.1 µM, first compound 0.000949 µM): 43.5%
viability, T/C (second compound 0.1 µM, first compound 0.003 µM): 40.8%
viability, T/C (second compound 0.1 µM, first compound 0.00949 µM): 33%
viability, T/C (second compound 0.1 µM, first compound 0.03 µM): 29.6%
viability, T/C (second compound 0.1 µM, first compound 0.0949 µM): 39.7%
viability, T/C (second compound 0.1 µM, first compound 0.3 µM): 33.8%
viability, T/C (second compound 0.316 µM, first compound 0.000949 µM): 40.4%
viability, T/C (second compound 0.316 µM, first compound 0.003 µM): 37.5%
viability, T/C (second compound 0.316 µM, first compound 0.00949 µM): 29.9%
viability, T/C (second compound 0.316 µM, first compound 0.03 µM): 29.4%
viability, T/C (second compound 0.316 µM, first compound 0.0949 µM): 30.3%
viability, T/C (second compound 0.316 µM, first compound 0.3 µM): 29.2%
viability, T/C (second compound 1 µM, first compound 0.000949 µM): 38.5%
viability, T/C (second compound 1 µM, first compound 0.003 µM): 31.8%
viability, T/C (second compound 1 µM, first compound 0.00949 µM): 25.5%
viability, T/C (second compound 1 µM, first compound 0.03 µM): 26.8%
viability, T/C (second compound 1 µM, first compound 0.0949 µM): 24.3%
viability, T/C (second compound 1 µM, first compound 0.3 µM): 25%
viability, T/C (second compound 3.16 µM, first compound 0.000949 µM): 33.5%
viability, T/C (second compound 3.16 µM, first compound 0.003 µM): 27.8%
viability, T/C (second compound 3.16 µM, first compound 0.00949 µM): 25.1%
viability, T/C (second compound 3.16 µM, first compound 0.03 µM): 25%
viability, T/C (second compound 3.16 µM, first compound 0.0949 µM): 21.1%
viability, T/C (second compound 3.16 µM, first compound 0.3 µM): 24.8%
viability, T/C (second compound 10 µM, first compound 0.000949 µM): 29.7%
viability, T/C (second compound 10 µM, first compound 0.003 µM): 25.9%
viability, T/C (second compound 10 µM, first compound 0.00949 µM): 20.2%
viability, T/C (second compound 10 µM, first compound 0.03 µM): 21.2%
viability, T/C (second compound 10 µM, first compound 0.0949 µM): 21.7%
viability, T/C (second compound 10 µM, first compound 0.3 µM): 20.1%

pIC50 (second compound 0.0316 µM): > 8.50
pIC50 (second compound 0.1 µM): > 8.50
pIC50 (second compound 0.316 µM): > 8.50
pIC50 (second compound 1 µM): 8.43
pIC50 (second compound 3.16 µM): > 8.50
pIC50 (second compound 10 µM): > 8.50
Structure (SMILES): Nc1ccn(C2OC(CO)C(O)C2(F)F)c(=O)n1 (stereo unspecified) + C#Cc1c(F)ccc2cc(O)cc(-c3ncc4c(N5CC6CCC(C5)N6)nc(OCC56CCCN5CC(F)C6)nc4c3F)c12
viability, T/C (second compound 0.0316 µM, first compound 0.00316 µM): 48.8%
viability, T/C (second compound 0.0316 µM, first compound 0.01 µM): 39.5%
viability, T/C (second compound 0.0316 µM, first compound 0.0316 µM): 32.6%
viability, T/C (second compound 0.0316 µM, first compound 0.1 µM): 24.9%
viability, T/C (second compound 0.0316 µM, first compound 0.316 µM): 24.1%
viability, T/C (second compound 0.0316 µM, first compound 1 µM): 18.5%
viability, T/C (second compound 0.1 µM, first compound 0.00316 µM): 44.5%
viability, T/C (second compound 0.1 µM, first compound 0.01 µM): 44.9%
viability, T/C (second compound 0.1 µM, first compound 0.0316 µM): 28.8%
viability, T/C (second compound 0.1 µM, first compound 0.1 µM): 20.9%
viability, T/C (second compound 0.1 µM, first compound 0.316 µM): 21%
viability, T/C (second compound 0.1 µM, first compound 1 µM): 15.4%
viability, T/C (second compound 0.316 µM, first compound 0.00316 µM): 43.3%
viability, T/C (second compound 0.316 µM, first compound 0.01 µM): 42.9%
viability, T/C (second compound 0.316 µM, first compound 0.0316 µM): 28.8%
viability, T/C (second compound 0.316 µM, first compound 0.1 µM): 23.4%
viability, T/C (second compound 0.316 µM, first compound 0.316 µM): 17.4%
viability, T/C (second compound 0.316 µM, first compound 1 µM): 17.8%
viability, T/C (second compound 1 µM, first compound 0.00316 µM): 52.4%
viability, T/C (second compound 1 µM, first compound 0.01 µM): 34.6%
viability, T/C (second compound 1 µM, first compound 0.0316 µM): 27.7%
viability, T/C (second compound 1 µM, first compound 0.1 µM): 16.4%
viability, T/C (second compound 1 µM, first compound 0.316 µM): 15.3%
viability, T/C (second compound 1 µM, first compound 1 µM): 14%
viability, T/C (second compound 3.16 µM, first compound 0.00316 µM): 48.5%
viability, T/C (second compound 3.16 µM, first compound 0.01 µM): 41.6%
viability, T/C (second compound 3.16 µM, first compound 0.0316 µM): 27.5%
viability, T/C (second compound 3.16 µM, first compound 0.1 µM): 20.8%
viability, T/C (second compound 3.16 µM, first compound 0.316 µM): 15%
viability, T/C (second compound 3.16 µM, first compound 1 µM): 13%
viability, T/C (second compound 10 µM, first compound 0.00316 µM): 35.9%
viability, T/C (second compound 10 µM, first compound 0.01 µM): 32.7%
viability, T/C (second compound 10 µM, first compound 0.0316 µM): 20.8%
viability, T/C (second compound 10 µM, first compound 0.1 µM): 20.4%
viability, T/C (second compound 10 µM, first compound 0.316 µM): 13.4%
viability, T/C (second compound 10 µM, first compound 1 µM): 9.08%
